Source: PMC4690453 (Bioorganic & medicinal chemistry letters, 2015)

Key:
[1] = tested on: NO production in BV2 microglial cell cultures treated with lipopolysachharide (LPS); assay: Inhibition of NO production in LPS-treated BV2 microglial cell cultures; format: cell-based; conditions: BV2 cells
[2] = tested on: BV2 microglial cells; assay: Cell viability assay; format: cell-based

SMILES | anti-inflammatory potency compared to DFB (in words) [1] | BV2 cell toxicity / viability (in words) [2]
O=C(Nc1ccccc1F)[C@H]1C[C@@H]1c1cccc(F)c1 (racemic) [Compound 1a, N-(2-fluorophenyl)-2-(3-fluorophenyl) cyclopropane-1-carboxamide] | decreased anti-inflammatory potency | 
O=C(Nc1ccc(F)cc1)[C@H]1C[C@@H]1c1cccc(F)c1 (racemic) [Compound 1b] | decreased anti-inflammatory potency | 
O=C(Nc1ccccc1Cl)[C@H]1C[C@@H]1c1cccc(F)c1 (racemic) [Compound 1c] | decreased anti-inflammatory potency | 
COc1cc(Br)ccc1NC(=O)[C@H]1C[C@@H]1c1cccc(F)c1 (racemic) [Compound 1d, N-(4-Bromo-2-methoxyphenyl)-2-(3-fluorophenyl)cyclopropane-1-carboxamide] |  | excellent BV2 microglial cell viability
O=C(Nc1nc2ccccc2s1)[C@H]1C[C@@H]1c1cccc(F)c1 (racemic) [Compound 1e, N-(Benzo[d]thiazol-2-yl)-2-(3-fluorophenyl)cyclopropane-1-carboxamide] | superior potency to DFB | 
O=C(Nc1nc2ccccc2[nH]1)[C@H]1C[C@@H]1c1cccc(F)c1 (racemic) [Compound 1f, N-(1H-benzo[d]imidazol-2-yl)-2-(3-fluorophenyl)cyclopropane-1-carboxamide] | superior potency to DFB | 
COc1cc(Br)ccc1NC(=O)[C@H]1C[C@@H]1c1cccc(Cl)c1 (racemic) [Compound 2d, N-(4-Bromo-2-methoxyphenyl)-2-(3-chlorophenyl)cyclopropane-1-carboxamide] | decreased potency | 
O=C(Nc1nc2ccccc2[nH]1)[C@H]1C[C@@H]1c1cccc(Cl)c1 (racemic) [Compound 2f] | improved potency | 
O=C(N[C@H]1C[C@@H]1c1cccc(F)c1)c1cccc(F)c1 (racemic) [Compound 3a, 3-fluoro-N-(2-(3-fluorophenyl)cyclopropyl)benzamide] |  | excellent cell viability
O=C(N[C@H]1C[C@@H]1c1cccc(F)c1)c1cccc([N+](=O)[O-])c1 (racemic) [Compound 3c] |  | significant BV2 cell toxicity
O=C(N[C@H]1C[C@@H]1c1cccc(F)c1)c1ccc([N+](=O)[O-])cc1 (racemic) [Compound 3d] |  | significant BV2 cell toxicity
